Reference: patent publication US12594255B2, “Lipids with odd number of carbon atoms and their use as pharmaceutical composition or nutritional supplement” (SunRegen Healthcare AG, priority 2016, dated 2026)
Values joined by “and” are separate entries in the source; they are usually repeats but may differ in a detail not shown here. Identical values can stand only once.

Tests used:
[1] = test system: mouse primary cortical neurons challenged with Aβ1-42 oligomers (AβO); assay: AβO-induced neurotoxicity, 48-h pre-incubation with test item, MTT assay; type: cell-based; settings: 48 h pre-incubation, then 1 μM AβO 24 h
Method: Mouse primary cortical neurons were pre-incubated for 48 h with vehicle, 0.05 μM DHA (used as positive control) or different concentrations of Compound C. Then, cortical neurons were treated for 24 h with vehicle (FIG. 1 left) or 1 μM AβO ([…]) and cell viability was determined using the MTT assay (n=3 determinations per condition, 1 independent experiment), Data are represented as % of vehicle control (Mean*SD). […]
(§1) Cortical neurons from embryonic day 16-17 are prepared from C57BL6/J mouse fetuses. In brief, dissociated cortical cells were plated (50.000 cells/well) in 48-well plates pre-coated with 1.5 μg/mL polyornithine (Sigma). Cells were cultured in a chemically defined Dulbecco's modified eagle's/F12 medium free of serum and supplemented with hormones, proteins and salts. Cultures were kept at 35° C. in a humidified 6% CO2 atmosphere. Mouse cortical neurons were exposed for 24 h to 1.0 μM AβO after a 48-h pre-incubation with vehicle or different concentrations of Compound C. The AβO-induced neurotoxicity was evaluated using the MTT assay.
All treatments were done in triplicates in 48-well plates. Cells were incubated with vehicle or 1 μM AβO in the absence or presence of different lipids at the indicated final concentrations) added at 48 hours before ADO. Cells were incubated with AβO for 24 h in a final volume of 140 μL per well.
For positive controls, cells are treated similarly (48 hours before AβO) in the presence of 0.05 μM DHA.
Following AβO-treatment, cell viability was measured using the MTT assay. Briefly, cells were incubated at 35° C. for 1 h with MTT (Sigma, Cat #M2128-10G. Lot #MKBH7489V). For that purpose, 14 μL of 5 mg/mL MITT (solubilized in PBS) were added in each well. After incubation, medium was removed and cells were lyzed with 150 μL DMSO for 10 minutes and protected from light. After complete solubilization of formazan, absorbance at 570 nm was recorded.
as §1, with “cells are” for “cells were”, “Cells are” for “Cells were”, “Cultures are” for “Cultures were”, “of herb B extracts.” for “of Compound C.”, “assay. […]” for “assay.”

[2] = test system: mouse primary cortical neurons challenged with Aβ1-42 oligomers (AβO); assay: AβO-induced neurotoxicity, test item added concomitantly (T0) or 3 h (T3) or 6 h (T6) after AβO, MTT assay; type: cell-based; settings: for % of neuroprotection and anti-apoptotic effects / viability at 1 µM: 1000 nM
Method: Mouse primary cortical neurons were treated at 0 h (T0) with vehicle or 1 μM AβO, Different concentrations of Compound C or HNG (0.1 μM, used as positive control) were added concomitantly to AβO at 0 h (T0)), 3 h (T3) or 6 h (T6) after AβO. Then, cortical neurons were incubated for 24 h and cell viability was determined using the MTT assay (n=3 determinations per condition, 1 independent experiment). Data are represented as % of vehicle control (Mean±SD). […]
The aim of this study is to determine whether Compound C might present neuroprotective, anti-apoptotic and neuro-rescuing effects in in vitro AβO induced neuron death models. For that purpose, the neuro-protective effects of compound C at six concentrations were investigated using mouse primary cortical neurons challenged with Aβ1-42 oligomers (AβO) Compounds were added at different time points (concomitantly T0 with AβO and T3, or T6 after AβO) with the aim to identify rescuing effects or anti-apoptotic effects.
Cortical neurons from embryonic day 16-17 are prepared from C57Bl6/J mouse fetuses, as described in Example I-1.
Mouse cortical neurons were exposed for 24 h to 1.0 μM AβO. The AβO-induced neurotoxicity was evaluated using the MTT assay. […] (FIG. 4)
The percentage of neuroprotection and anti-apoptosis effects was defined as; (neuron viability of compound C group−neuron viability of toxin treated group)/(100−neuron viability of toxin treated group)×100%. The % of neuroprotection and anti-apoptotic effects of compound C at 1000 nM is 88.7%, 52.0%, 22.3%, at T0, T3, or T6, respectively. (FIG. 4) […]

[3] = test system: mouse primary cortical neurons challenged with camptothecin; assay: Camptothecin-induced neuronal death, test item added 48 hours before camptothecin; type: cell-based; settings: for neuroprotective and anti-apoptotic effects: 48 h before 1 μM camptothecin; for cell viability: 48 h before 1 μM camptothecin 24 h
Method: (§2) Mouse primary neurons were incubated with vehicle or toxins in the absence or presence of different concentrations of compound C added 48 hours before toxin's challenge. After the addition of toxins, cells were further incubated for 24 h.
as §2, with “Herb B” for “compound C”, “camptothecin's” for “toxin's”, “Camptothecin,” for “toxins,”, “h. Data are represented as % of vehicle control (Mean±SD).” for “h.”
The neuro-protective effects of different concentrations of compound C was investigated using mouse primary cortical neurons challenged with camptothecin, which is a cytotoxic quinoline alkaloid which inhibits the DNA enzyme topoisomerase I (topo I).
(§3) Mouse primary neurons were incubated with vehicle or toxins in the absence or presence of different concentrations of compound C added 48 hours before toxin's challenge. After the addition of 1 μM camptothecin, cells were further incubated for 24 h in a final volume of 140 μL per well.
as §3, with “Cells” for “Mouse primary neurons”, “toxins (at the indicated final concentrations described in plate-layout below)” for “toxins”

[4] = test system: patients suffered from incurable diseases; assay: Case reports of patients eating functional food containing SBC003; type: in vivo, human
Text: Compound C (tripentadecanoin) is a natural lipid which can be found in specific herbs, but can also be found in human/animal milk. The patients described in examples II suffered from incurable diseases without any efficient treatment have voluntarily requested the functional food which containing SBC003.

## CCCCCCCCCCCCCCC(=O)OCC(COC(=O)CCCCCCCCCCCCCC)OC(=O)CCCCCCCCCCCCCC [Compound C, tripentadecanoin]
[1]; Compound C 320 nM
  maximal neuroprotective effect: 100%
[1]; Mus musculus, Primary cortical neuron, expected around, read-out: EC50 effect (neuroprotection)
  EC50: ~66 nM
[1]; Mus musculus, Primary cortical neuron, Compound C 320 nM, read-out: cell viability
  viability at 0.32 µM: 112 ± 1.5%
[2]; T0
  % of neuroprotection and anti-apoptotic effects: 88.7%
[2]; T3
  % of neuroprotection and anti-apoptotic effects: 52.0%
[2]; T6
  % of neuroprotection and anti-apoptotic effects: 22.3%
[2]; Mus musculus, Primary cortical neuron, 320 nM, added 3 h after AβO (T3)
  viability at 0.32 µM: 65.3 ± 2.6%
[2]; Mus musculus, Primary cortical neuron, added 3 h after AβO (T3)
  viability at 1 µM: 76.6 ± 2.9%
[2]; Mus musculus, Primary cortical neuron, added 6 h after AβO (T6)
  viability at 1 µM: 62.4 ± 3.5%
[2]; Mus musculus, Primary cortical neuron, added concomitantly to AβO (T0)
  viability at 1 µM: 94.5 ± 4.6%
[3]; 10 nM
  neuroprotective and anti-apoptotic effects: 37.3%
  cell viability: 73.5±1.5 % of control
[3]; 100 nM
  neuroprotective and anti-apoptotic effects: 37.2%
  cell viability: 73.4±5.9 % of control
[4]; female, chronic kidney failure, on treatment, before mean 9.21 mg/dl
  serum creatinine, average level: 8.88 mg/dL
[4]; female, chronic kidney failure, single values on treatment, before mean 9.21 mg/dl, listed as SBC003
  serum creatinine: 8.88 mg/dL and 8.97 mg/dL and 8.55 mg/dL and 9.12 mg/dL
[4]; person, ALS, ventilator, functional food containing SBC003 about 10 mg/day, about one month, before at the most 30 mins/day
  time breathing by themself: about 55 mins/day
[4]; person, Parkinson's disease, functional food containing SBC003 about 10 mg/day, after about one week
  Parkinson's symptoms: abnormal shaking in feet improved
[4]; person, asthma about 20 years, about 5 mg/time for about few times
  symptoms of asthma: greatly improved
[4]; person, asthma about 29 years, functional food containing SBC003 about 5 mg for one or two time
  asthma symptoms: symptoms greatly improved
[4]; person, cerebellar atrophy, functional food containing SBC003 about 10 mg/day, after about one month
  facial expression / communication: started to smile
[4]; person, chronic kidney failure, haemodialysis, no urine before, about 10 to 25 mg/day for about 1 month, after about 2 months
  urine volume once per day: 10 mL
[4]; person, chronic kidney failure, after increasing to 50-100 mg/day for about 2-3 months
  urine total volume per day: about 50 ml per day
[4]; person, chronic kidney failure, on treatment, prior to the treatment 130-180 mg/dl
  blood glucose level: 70 to 105 mg/dL
[4]; person, optic atrophy, blind, functional food containing SBC003 about 7 mg/day for 7 days, after about one month
  vision (patient-reported): brighter and better vision
[4]; person, spinal fractures, about 20 mg/day, about 10 days, before only 1 hour/time
  sitting time: up to 2 hours
[4]; person, spinal fractures, functional food containing SBC003 about 20 mg/day, about 10 days
  remaining lumbar pains: 40 % of the pains before taking SBC003
